Patent US20130337485A1, “ENZYMATIC SYNTHESIS OF ACTIVE PHARMACEUTICAL INGREDIENT AND INTERMEDIATES THEREOF” (LEK PHARMACEUTICALS D.D, priority 2010, published 2013)

Columns and labels:
[1] = biological target: glucose oxidase from A. niger (Aspergillus niger, UniProt P13006); settings: cited from earlier work
[2] = biological target: T1, membrane bound glucose dehydrogenase from E. coli, the Gcd (Escherichia coli, UniProt P15877); test: Substrate specificity and pH optima of membrane bound glucose dehydrogenase Gcd (DCPIP method); format: biochemical; settings: for Activity of E. coli BL21(DE3) pET30/Gcd on substrate, lysate / Activity of E. coli BL21(DE3) pET30/Gcd on substrate, resting whole cell: 50 mM substrate, 5 μM PQQ, 10 mM MgCl2
T1 construct: made in house; host or cells: E. coli BL21(DE3) carrying pET30/Gcd; not purified (resting whole cells or lysate), reconstituted with PQQ and MgCl2
T1 sequence (P15877 1-796): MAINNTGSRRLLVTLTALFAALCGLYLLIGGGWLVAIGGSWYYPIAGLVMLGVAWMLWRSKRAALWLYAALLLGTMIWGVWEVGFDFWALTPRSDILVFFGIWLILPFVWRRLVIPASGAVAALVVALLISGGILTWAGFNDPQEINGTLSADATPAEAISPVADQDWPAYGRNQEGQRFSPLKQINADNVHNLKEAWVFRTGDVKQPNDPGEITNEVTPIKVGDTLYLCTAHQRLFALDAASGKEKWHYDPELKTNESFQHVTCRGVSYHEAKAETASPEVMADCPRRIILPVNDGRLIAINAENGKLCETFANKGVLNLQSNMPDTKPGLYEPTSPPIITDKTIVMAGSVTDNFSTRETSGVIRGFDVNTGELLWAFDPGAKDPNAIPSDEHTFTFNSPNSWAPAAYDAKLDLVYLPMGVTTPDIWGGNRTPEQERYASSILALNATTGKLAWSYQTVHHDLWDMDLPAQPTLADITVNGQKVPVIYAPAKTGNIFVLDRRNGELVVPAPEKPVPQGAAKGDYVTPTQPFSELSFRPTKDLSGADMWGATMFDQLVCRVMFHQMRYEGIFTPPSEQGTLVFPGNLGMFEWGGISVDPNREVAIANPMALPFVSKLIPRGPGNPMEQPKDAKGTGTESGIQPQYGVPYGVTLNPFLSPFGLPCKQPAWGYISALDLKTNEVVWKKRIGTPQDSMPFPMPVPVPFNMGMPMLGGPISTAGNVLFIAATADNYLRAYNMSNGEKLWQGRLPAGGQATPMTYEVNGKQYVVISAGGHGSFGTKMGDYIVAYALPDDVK
Procedure: To investigate substrate specificity and pH optima of said E. coli membrane aldose dehydrogenase the above mentioned experiments were performed on the catalyst E. coli BL21 pET30/Gcd.

[3] = biological target: T2, E. coli YliI aldose dehydrogenase (Escherichia coli, UniProt P75804, A204V); test: Substrate specificity and pH optima of E. coli YliI aldose dehydrogenase (DCPIP method); format: biochemical; settings: for Activity of E. coli BL21(DE3) pET30/Ylil on substrate, resting whole cell: 50 mM substrate, 5 μM PQQ, 10 mM MgCl2
T2 construct: made in house; host or cells: E. coli BL21(DE3) carrying pET30/YliI; not purified (resting whole cells or cell free lysate), reconstituted with PQQ and MgCl2
Procedure: (§1) Final volume of reaction mixture was 200 μL, all components were dissolved in phosphate buffer pH 8.0.
(§2) The catalyst E. coli BL21 pET30/YliI culture obtained either as resting whole cell catalyst (obtained undertaking Procedure 1C) or as lysate (as described in Example 2). The initial pH value of reaction mixture was 8.0. All tested solutions were made in triplicates.
(§3) The second reaction mixture was prepared identically to the above with a sole difference: the pH value of assembled mixture being 6.0 (all compounds of reaction mixture were dissolved in phosphate buffer pH 6.0 and the initial pH value of reaction mixture was thus 6.0). All tested solutions were made in triplicates.
(§4) Experiment was performed as described in Example 11. In the table below are shown activities of “analyzed material” (abs[mAU min^−1 mg^−1])

[4] = tested on: whole cell catalyst E. coli BL21 pET30/Gcd; test: Whole cell catalysis capability in bioreactor using pO2 sensor; format: cell-based; settings: pH 6.2, 37° C., 5 μM PQQ, 10 mM MgCl2
Procedure: Laboratory bioreactors Infors ISF100 with maximal volume of 2 L were used for determination of whole cell catalysis capability of E. coli aldose dehydrogenases. The reactors were stirred, aerated, temperature and pH controlled as described below. When whole cell catalysts bearing holo aldose dehydrogenases were exposed to various substrates, unusual consumption of O2 appeared.
Experiments were performed using whole cell catalyst E. coli BL21 pET30/Gcd (procedure of preparation in described in Example 1, Procedure 1A and moreover in Example 25).
Whole cell catalysts were dissolved in phosphate buffer (50 mM KH2PO4, 150 mM NaCl, pH 6.2) to concentrations of 5 g/L, 10 g/L and 20 g/L to the final volume ([…] in the bioreactor.
The initial process parameters before substrate was added were as follows: 37° C., air flow rate 1.0 L/min (1.0 VVM), stirrer speed 1000 rpm, pH 6.2 and the dissolved oxygen concentration was kept at ≧80% of saturation. 5 μM PQQ and 10 mM MgCl2 were provided into bioreactor broth. Feeding solution were 12.5% (v/v) ammonium hydroxide solution and the silicone antifoam compound synperonic antifoam (Sigma, A-5551) which were fed continuously.
The system described above is very complex in terms of mathematical description of dissolved oxygen levels over the time. On the one hand these are depending on the kLa (vessel properties, stirring, aeration, medium, temperature etc) and enzymatic kinetics on the aldose dehydrogenase on the other hand. In addition the oxygen probe delay kinetics play an important role. We have therefore found empirically, that oxygen consumption in the phase after the pulse feed of the substrate till the minimum of the dissolved oxygen in this dynamic system is best correlated to quadratic equation. A good indicator of the activity potential of the studied biocatalyst is the slope of this quadratic equation, measured at specific time value (for example t=15 seconds). The slope was calculated from the first derivative of the quadratic equation.

[5] = biological target: T3, E. coli YliI aldose dehydrogenase (Escherichia coli, UniProt P75804); test: Substrate specificity and pH optima of E. coli YliI aldose dehydrogenase (DCPIP method); format: biochemical; settings: 50 mM substrate, 5 μM PQQ, 10 mM MgCl2
T3 construct: made in house; host or cells: E. coli BL21(DE3) carrying pET30/YliI; not purified (resting whole cells or cell free lysate), reconstituted with PQQ and MgCl2
Procedure: as §1, §2, §3, §4

[6] = whole cell catalyst BL21 (DE3) pET30/Gcd 5 g/L
[7] = whole cell catalyst BL21 (DE3) pET30/Gcd 10 g/L
[8] = whole cell catalyst BL21 (DE3) pET30/Gcd 20 g/L

Sequence of glucose oxidase from A. niger (P13006 17-605): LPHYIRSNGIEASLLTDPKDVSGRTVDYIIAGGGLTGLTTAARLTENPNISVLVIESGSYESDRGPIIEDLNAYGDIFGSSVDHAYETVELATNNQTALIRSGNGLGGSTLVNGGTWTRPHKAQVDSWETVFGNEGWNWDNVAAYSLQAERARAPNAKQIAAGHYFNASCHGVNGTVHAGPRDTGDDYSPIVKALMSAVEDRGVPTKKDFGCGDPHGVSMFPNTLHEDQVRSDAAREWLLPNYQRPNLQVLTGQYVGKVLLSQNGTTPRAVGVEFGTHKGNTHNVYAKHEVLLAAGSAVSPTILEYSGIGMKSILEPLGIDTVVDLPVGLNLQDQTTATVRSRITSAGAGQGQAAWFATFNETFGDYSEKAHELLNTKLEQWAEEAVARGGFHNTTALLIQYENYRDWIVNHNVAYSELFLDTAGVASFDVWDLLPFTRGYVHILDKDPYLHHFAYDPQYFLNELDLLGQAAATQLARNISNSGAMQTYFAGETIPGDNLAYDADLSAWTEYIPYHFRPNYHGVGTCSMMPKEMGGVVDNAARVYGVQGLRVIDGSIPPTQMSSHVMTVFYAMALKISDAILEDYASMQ
T3 sequence (P75804 21-371 A204V): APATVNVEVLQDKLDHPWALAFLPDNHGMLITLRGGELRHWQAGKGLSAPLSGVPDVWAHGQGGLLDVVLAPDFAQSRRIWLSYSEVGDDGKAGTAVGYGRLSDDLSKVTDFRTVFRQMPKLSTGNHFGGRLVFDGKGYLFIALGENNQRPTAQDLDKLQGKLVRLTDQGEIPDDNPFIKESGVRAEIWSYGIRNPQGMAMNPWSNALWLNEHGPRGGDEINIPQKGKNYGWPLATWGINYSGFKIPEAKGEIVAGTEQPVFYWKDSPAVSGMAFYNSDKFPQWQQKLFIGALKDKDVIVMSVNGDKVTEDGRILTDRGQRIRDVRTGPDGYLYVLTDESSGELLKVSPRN
T2 sequence (P75804 21-371 A204V): as above

Row | SMILES | Reaction rate of oxidation by glucose oxidase, glucose as reference (100%) [1] | Activity of E. coli BL21(DE3) pET30/Gcd on substrate, lysate ([2]; pH 6.0) | Activity of E. coli BL21(DE3) pET30/Gcd on substrate, resting whole cell ([2]; pH 6.0) | Activity of E. coli BL21(DE3) pET30/Gcd on substrate, lysate ([2]; pH 8.0) | Activity of E. coli BL21(DE3) pET30/Gcd on substrate, resting whole cell ([2]; pH 8.0) | Activity of E. coli BL21(DE3) pET30/Ylil on substrate, resting whole cell ([3]; pH 6.0) | Activity of E. coli BL21(DE3) pET30/Ylil on substrate, resting whole cell ([3]; pH 8.0) | Activity of E. coli BL21(DE3) pET30/Ylil on substrate, lysate ([5]; pH 6.0) | Activity of E. coli BL21(DE3) pET30/Ylil on substrate, lysate ([5]; pH 8.0) | further results
1 | CO[C@@H]([C@H](O)[C@@H](O)C=O)[C@H](O)CO [4-O-methyl-D-glucose] | 15% | – | – | – | – | – | – | – | – | –
2 | CC(=O)OC[C@@H]1C[C@@H](O)CC(=O)O1 | – | – | – | – | – | – | – | – | – | Added product concentration above which slight reduction in reaction rates was observed ([2]; E. coli BL21 pET30/Gcd, pH 6.0, in addition of 10 g/L substrate): more than 55 g/L; Added product concentration above which slight reduction in reaction rates was observed ([3]; E. coli BL21 pET30/YliI, pH 8.0, in addition of 10 g/L substrate): more than 35 g/L
3 | CC(=O)OC[C@@H]1C[C@@H](O)CC(O)O1 (stereo partly drawn) | – | 2403 abs[mAU min^−1 mg^−1] | 2403 abs[mAU min^−1 mg^−1] | 1013 abs[mAU min^−1 mg^−1] | 1105 abs[mAU min^−1 mg^−1] | 270 abs[mAU min^−1 mg^−1] | 1897 abs[mAU min^−1 mg^−1] | 273 abs[mAU min^−1 mg^−1] | 1913 abs[mAU min^−1 mg^−1] | Substrate concentration above which slight substrate inhibition to the reaction rate was observed ([2]; E. coli BL21 pET30/Gcd, pH 6.0): above 60 g/L; DCPIP discoloration rate compared with D-glucose or D-galactose as substrate ([2]; E. coli BL21 pET30/Gcd, pH 6.0, 2.5-10 g/L substrate): about two times slower; Slope of quadratic equation of oxygen consumption after substrate pulse [4, 6]: 38652; Slope of quadratic equation of oxygen consumption after substrate pulse [4, 7]: 87425; Slope of quadratic equation of oxygen consumption after substrate pulse [4, 8]: 163562; Substrate concentration above which slight substrate inhibition to the reaction rate was observed ([3]; E. coli BL21 pET30/YliI, pH 8.0): above 40 g/L; DCPIP discoloration rate compared with D-glucose or D-galactose as substrate ([3]; E. coli BL21 pET30/YliI, pH 8.0, 2.5-10 g/L substrate): about two times faster
4 | O=CC[C@@H](O)[C@H](O)[C@H](O)CO [2-deoxy-D-glucose] | 20-30% | – | – | – | – | – | – | – | – | –
5 | O=C[C@H](O)[C@@H](O)[C@H](O)[C@H](O)CO [D-glucose] | – | 2830 abs[mAU min^−1 mg^−1] | 2840 abs[mAU min^−1 mg^−1] | 1305 abs[mAU min^−1 mg^−1] | 1260 abs[mAU min^−1 mg^−1] | 350 abs[mAU min^−1 mg^−1] | 356 abs[mAU min^−1 mg^−1] | 210 abs[mAU min^−1 mg^−1] | 321 abs[mAU min^−1 mg^−1] | Slope of quadratic equation of oxygen consumption after substrate pulse [4, 6]: 45813; Slope of quadratic equation of oxygen consumption after substrate pulse [4, 7]: 114771; Slope of quadratic equation of oxygen consumption after substrate pulse [4, 8]: 230631
6 | OCC(O)CO [glycerol] | – | 202 abs[mAU min^−1 mg^−1] | 215 abs[mAU min^−1 mg^−1] | 100 abs[mAU min^−1 mg^−1] | 102 abs[mAU min^−1 mg^−1] | 85 abs[mAU min^−1 mg^−1] | 247 abs[mAU min^−1 mg^−1] | 70 abs[mAU min^−1 mg^−1] | 235 abs[mAU min^−1 mg^−1] | –
7 | C[C@@H](O)[C@@H](O)[C@H](O)[C@@H](O)C=O [6-deoxy-D-glucose] | 10% | – | – | – | – | – | – | – | – | –
